Measurements reported in ChEMBL document CHEMBL5506038, “Discovery of LC-MI-3: A Potent and Orally Bioavailable Degrader of Interleukin-1 Receptor-Associated Kinase 4 for the Treatment of Inflammatory Diseases” (J Med Chem, 2024).
Each block holds one compound with its values, some of them ahead of it. Activity calls are given as the source filed them. No cut-off for these calls is given here.

What was measured:
[1] = biological target: Protein cereblon/Interleukin-1 receptor-associated kinase 4 (Mus musculus) (UniProt Q8C7D2+Q8R4K2); experiment: PROTAC activity at IRAK4/CRBN in mouse BaF3 cells assessed as reduction in IRAK4 level at 100 nM incubated for 12 hrs by Western blot analysis relative to control; format: cell-based; set-up: scale not given: the % may be the effect or the level left
Protein cereblon/Interleukin-1 receptor-associated kinase 4 (Mus musculus), sequence (Q8C7D2 whole entry, looked up, one chain of several): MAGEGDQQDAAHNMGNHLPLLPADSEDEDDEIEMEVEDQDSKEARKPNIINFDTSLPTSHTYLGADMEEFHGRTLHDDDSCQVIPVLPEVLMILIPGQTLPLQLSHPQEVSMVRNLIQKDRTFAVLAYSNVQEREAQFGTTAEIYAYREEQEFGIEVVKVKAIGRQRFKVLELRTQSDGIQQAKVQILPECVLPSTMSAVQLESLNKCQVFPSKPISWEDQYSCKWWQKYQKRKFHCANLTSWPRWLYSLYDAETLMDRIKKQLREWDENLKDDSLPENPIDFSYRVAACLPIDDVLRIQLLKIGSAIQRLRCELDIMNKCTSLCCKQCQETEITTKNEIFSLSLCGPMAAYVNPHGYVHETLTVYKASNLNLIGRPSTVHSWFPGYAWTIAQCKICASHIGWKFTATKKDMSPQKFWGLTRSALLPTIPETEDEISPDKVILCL

[2] = biological target: T1, Interleukin-1 receptor-associated kinase 4 (Homo sapiens, UniProt Q9NWZ3); experiment: (§1) Inhibition of IRAK4 (unknown origin)
T1 sequence (Q9NWZ3 whole entry): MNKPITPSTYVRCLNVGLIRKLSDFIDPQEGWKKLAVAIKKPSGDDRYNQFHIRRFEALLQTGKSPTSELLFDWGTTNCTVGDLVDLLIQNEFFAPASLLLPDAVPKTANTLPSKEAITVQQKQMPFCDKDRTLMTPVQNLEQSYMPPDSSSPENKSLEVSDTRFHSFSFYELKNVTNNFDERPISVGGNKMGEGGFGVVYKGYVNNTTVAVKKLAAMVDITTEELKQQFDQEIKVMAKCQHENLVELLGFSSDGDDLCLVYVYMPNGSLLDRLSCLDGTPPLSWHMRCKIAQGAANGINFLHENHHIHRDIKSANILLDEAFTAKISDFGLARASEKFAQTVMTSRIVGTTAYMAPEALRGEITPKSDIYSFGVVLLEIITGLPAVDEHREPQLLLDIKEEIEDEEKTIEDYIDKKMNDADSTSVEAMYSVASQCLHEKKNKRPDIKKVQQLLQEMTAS

[3] = biological target: T2, Interleukin-1 receptor-associated kinase 4 (Homo sapiens) (UniProt Q9NWZ3); experiment: as §1
T2 sequence (whole entry): T1 sequence (Q9NWZ3 whole entry)

[4] = biological target: Protein cereblon/Interleukin-1 receptor-associated kinase 4 (Homo sapiens, UniProt Q9NWZ3+Q96SW2); experiment: PROTAC activity at IRAK4/CRBN in HEK293T cells assessed as induction of IRAK4 degradation by immunoblotting analysis; format: cell-based
[5] = Drug metabolism in rat hepatocyte assessed as amide hydrolysis-mediated metabolite formation by LC-MS/MS analysis; format: ADME, cell-based; settings: hepatocytes
[6] = biological target: T3, Interleukin-1 receptor-associated kinase 4 (Mus musculus) (UniProt Q8R4K2); experiment: Inhibition of IRAK4 in LPS-induced mouse RAW264.7 cells assessed as reduction in JNK level at 1 to 5 uM pretreated with LPS for 1 hr followed by compound administration and measured after 2 hrs by Western blotting analysis; format: cell-based; settings: dose 1-5 µM
T3 sequence (whole entry): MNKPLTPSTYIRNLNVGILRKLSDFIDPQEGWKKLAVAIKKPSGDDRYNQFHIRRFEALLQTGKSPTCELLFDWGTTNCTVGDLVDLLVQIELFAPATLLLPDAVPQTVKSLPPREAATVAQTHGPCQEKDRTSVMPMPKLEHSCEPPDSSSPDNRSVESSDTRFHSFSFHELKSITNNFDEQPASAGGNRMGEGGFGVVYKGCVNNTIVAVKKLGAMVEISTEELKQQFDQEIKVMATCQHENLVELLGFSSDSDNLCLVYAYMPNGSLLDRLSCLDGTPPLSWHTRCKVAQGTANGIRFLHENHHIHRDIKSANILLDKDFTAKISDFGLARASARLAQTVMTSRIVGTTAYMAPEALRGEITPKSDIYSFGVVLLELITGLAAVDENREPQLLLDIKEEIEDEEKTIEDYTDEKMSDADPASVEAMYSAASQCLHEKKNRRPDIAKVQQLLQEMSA

[7] = biological target: Mitogen-activated protein kinase kinase kinase kinase 4 (Homo sapiens) (UniProt O95819); experiment: Inhibition of MAP4K4 (unknown origin) at 1 uM relative to control
Mitogen-activated protein kinase kinase kinase kinase 4 (Homo sapiens), sequence (O95819 2-1239 limits assumed): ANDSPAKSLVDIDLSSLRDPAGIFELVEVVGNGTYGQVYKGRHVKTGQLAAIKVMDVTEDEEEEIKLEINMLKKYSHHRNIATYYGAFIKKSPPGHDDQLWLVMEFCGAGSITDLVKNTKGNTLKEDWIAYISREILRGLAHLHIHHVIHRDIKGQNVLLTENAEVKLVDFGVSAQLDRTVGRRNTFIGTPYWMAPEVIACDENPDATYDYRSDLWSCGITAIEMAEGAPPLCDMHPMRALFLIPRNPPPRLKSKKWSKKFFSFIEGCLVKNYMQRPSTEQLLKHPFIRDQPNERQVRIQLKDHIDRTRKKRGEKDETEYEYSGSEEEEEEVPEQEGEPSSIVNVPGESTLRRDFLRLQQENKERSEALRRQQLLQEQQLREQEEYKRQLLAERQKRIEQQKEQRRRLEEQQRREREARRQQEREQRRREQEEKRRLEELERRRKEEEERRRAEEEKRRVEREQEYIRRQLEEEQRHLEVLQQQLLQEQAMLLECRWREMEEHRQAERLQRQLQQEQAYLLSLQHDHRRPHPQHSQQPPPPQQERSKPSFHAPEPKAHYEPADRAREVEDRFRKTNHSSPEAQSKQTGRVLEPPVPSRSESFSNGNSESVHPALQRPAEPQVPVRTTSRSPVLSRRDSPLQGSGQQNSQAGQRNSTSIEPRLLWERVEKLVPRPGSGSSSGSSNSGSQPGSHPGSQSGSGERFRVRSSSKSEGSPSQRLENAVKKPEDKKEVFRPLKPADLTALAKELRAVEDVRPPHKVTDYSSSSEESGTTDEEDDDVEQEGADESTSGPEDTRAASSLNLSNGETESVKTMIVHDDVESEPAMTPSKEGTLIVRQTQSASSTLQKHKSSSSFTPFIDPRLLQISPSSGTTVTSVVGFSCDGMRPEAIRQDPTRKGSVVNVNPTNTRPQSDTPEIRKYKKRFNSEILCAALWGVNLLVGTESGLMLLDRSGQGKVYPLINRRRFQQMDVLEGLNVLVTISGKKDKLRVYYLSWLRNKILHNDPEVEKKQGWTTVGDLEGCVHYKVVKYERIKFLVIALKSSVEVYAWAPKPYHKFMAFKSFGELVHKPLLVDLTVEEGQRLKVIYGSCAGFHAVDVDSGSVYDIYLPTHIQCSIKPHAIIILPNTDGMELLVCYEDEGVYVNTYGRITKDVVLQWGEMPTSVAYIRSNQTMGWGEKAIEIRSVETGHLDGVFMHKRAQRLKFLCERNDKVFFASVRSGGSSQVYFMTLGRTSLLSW

[8] = biological target: T3, Interleukin-1 receptor-associated kinase 4 (Mus musculus); experiment: Inhibition of IRAK4 in LPS-induced mouse RAW264.7 cells assessed as reduction in p65 nuclear translocation at 1 to 5 uM pretreated with LPS for 1 hr followed by compound administration and measured after 2 hrs by immunofluorescence analysis; format: cell-based; settings: dose 1-5 µM
Mus musculus = experiment: Anti-inflammatory activity against LPS-induced acute […] injury C57BL/6 mouse model assessed as reduction in ERK level at 20 mg/kg, IG pretreated with compound for 12 hrs followed by LPS-induction and measured after 6 hrs; format: functional, organism-based; settings: time 18.0 hrs
[9] = biological target: Citron Rho-interacting kinase (Homo sapiens) (UniProt O14578); experiment: Inhibition of CIT (unknown origin) at 1 uM relative to control
Citron Rho-interacting kinase (Homo sapiens), sequence (O14578 whole entry): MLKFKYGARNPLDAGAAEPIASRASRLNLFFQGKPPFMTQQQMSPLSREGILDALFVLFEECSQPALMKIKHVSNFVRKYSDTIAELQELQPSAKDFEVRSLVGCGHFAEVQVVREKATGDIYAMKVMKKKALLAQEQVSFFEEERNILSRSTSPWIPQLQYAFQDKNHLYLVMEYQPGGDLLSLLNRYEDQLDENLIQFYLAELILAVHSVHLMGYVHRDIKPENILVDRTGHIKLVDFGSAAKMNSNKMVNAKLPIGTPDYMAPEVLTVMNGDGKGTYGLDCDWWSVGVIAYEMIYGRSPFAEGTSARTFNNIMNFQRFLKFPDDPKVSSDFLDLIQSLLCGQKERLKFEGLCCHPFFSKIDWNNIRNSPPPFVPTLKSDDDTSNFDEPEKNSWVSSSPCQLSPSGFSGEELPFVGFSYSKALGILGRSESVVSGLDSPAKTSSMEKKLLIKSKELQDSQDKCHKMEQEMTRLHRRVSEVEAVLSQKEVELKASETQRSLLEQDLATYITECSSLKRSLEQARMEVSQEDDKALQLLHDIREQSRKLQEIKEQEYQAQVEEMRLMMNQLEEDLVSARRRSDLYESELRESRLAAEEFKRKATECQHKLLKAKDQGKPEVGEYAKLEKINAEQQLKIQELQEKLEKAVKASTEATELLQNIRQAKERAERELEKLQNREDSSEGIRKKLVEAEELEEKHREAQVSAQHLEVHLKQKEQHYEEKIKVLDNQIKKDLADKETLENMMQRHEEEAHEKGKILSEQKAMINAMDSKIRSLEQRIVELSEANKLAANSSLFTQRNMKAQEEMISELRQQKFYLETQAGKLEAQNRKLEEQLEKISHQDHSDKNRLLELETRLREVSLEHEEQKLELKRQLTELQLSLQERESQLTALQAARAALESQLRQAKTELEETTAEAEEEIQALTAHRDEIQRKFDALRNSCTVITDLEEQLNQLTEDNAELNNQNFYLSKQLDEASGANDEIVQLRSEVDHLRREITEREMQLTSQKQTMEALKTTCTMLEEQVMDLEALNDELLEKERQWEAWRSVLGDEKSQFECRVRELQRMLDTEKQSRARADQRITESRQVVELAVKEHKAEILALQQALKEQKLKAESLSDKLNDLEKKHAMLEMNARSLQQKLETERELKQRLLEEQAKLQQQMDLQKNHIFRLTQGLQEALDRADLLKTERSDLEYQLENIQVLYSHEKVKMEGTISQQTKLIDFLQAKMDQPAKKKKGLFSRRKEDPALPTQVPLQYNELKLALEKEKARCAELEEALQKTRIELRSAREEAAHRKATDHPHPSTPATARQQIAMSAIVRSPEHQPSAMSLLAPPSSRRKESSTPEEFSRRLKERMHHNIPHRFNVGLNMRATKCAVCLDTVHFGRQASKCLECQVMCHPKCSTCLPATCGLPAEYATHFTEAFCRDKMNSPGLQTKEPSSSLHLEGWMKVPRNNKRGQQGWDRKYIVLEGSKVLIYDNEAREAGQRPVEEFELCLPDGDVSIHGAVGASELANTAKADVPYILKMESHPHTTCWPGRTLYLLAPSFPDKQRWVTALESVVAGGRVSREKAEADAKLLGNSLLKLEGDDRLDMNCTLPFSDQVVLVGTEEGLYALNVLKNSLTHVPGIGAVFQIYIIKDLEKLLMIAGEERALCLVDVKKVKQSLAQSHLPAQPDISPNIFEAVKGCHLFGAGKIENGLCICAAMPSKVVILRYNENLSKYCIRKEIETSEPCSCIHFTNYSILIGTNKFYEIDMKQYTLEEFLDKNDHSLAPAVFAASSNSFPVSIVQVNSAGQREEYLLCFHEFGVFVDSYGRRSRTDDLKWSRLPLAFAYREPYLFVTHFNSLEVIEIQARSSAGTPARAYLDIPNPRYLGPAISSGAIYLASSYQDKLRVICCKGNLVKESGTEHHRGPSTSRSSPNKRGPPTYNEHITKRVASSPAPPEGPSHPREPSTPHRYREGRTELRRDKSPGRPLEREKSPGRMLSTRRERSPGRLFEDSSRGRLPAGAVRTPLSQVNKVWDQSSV

[10] = biological target: Dual specificity mitogen-activated protein kinase kinase 5 (Homo sapiens) (UniProt Q13163); experiment: Inhibition of MEK5 (unknown origin) at 1 uM relative to control
[11] = biological target: MAP kinase p38 (Mus musculus) (UniProt P47811+O08911+Q9WUI1+Q9Z1B7); experiment: Inhibition of MAPK phosphorylation in LPS-induced mouse RAW264.7 cells at 1 uM pretreated with compound for 1 hr followed by LPS-induction and measured after 2 hrs by Western blot analysis; format: cell-based; settings: time 3.0 hrs
[12] = biological target: T3, Interleukin-1 receptor-associated kinase 4 (Mus musculus); experiment: Inhibition of IRAK4 in LPS-induced mouse RAW264.7 cells assessed as effect on IkappaB-alpha level at 1 to 5 uM pretreated with LPS for 1 hr followed by compound administration and measured after 2 hrs by Western blotting analysis; format: cell-based; settings: dose 1-5 µM
RAW264.7 [13] = experiment: Activation of NF-kappaB pathway in LPS-induced mouse RAW264.7 cells expressing EGFP at 5 uM pretreated with compound for 1 hr followed by LPS-induction and measured after 6 hrs by flow cytometry analysis; format: cell-based; settings: filed as activator, time 7.0 hrs
[14] = biological target: Tyrosine-protein kinase JAK1 (Homo sapiens) (UniProt P23458); experiment: Inhibition of JAK1 (unknown origin) at 1 uM relative to control
Tyrosine-protein kinase JAK1 (Homo sapiens), sequence (P23458 whole entry): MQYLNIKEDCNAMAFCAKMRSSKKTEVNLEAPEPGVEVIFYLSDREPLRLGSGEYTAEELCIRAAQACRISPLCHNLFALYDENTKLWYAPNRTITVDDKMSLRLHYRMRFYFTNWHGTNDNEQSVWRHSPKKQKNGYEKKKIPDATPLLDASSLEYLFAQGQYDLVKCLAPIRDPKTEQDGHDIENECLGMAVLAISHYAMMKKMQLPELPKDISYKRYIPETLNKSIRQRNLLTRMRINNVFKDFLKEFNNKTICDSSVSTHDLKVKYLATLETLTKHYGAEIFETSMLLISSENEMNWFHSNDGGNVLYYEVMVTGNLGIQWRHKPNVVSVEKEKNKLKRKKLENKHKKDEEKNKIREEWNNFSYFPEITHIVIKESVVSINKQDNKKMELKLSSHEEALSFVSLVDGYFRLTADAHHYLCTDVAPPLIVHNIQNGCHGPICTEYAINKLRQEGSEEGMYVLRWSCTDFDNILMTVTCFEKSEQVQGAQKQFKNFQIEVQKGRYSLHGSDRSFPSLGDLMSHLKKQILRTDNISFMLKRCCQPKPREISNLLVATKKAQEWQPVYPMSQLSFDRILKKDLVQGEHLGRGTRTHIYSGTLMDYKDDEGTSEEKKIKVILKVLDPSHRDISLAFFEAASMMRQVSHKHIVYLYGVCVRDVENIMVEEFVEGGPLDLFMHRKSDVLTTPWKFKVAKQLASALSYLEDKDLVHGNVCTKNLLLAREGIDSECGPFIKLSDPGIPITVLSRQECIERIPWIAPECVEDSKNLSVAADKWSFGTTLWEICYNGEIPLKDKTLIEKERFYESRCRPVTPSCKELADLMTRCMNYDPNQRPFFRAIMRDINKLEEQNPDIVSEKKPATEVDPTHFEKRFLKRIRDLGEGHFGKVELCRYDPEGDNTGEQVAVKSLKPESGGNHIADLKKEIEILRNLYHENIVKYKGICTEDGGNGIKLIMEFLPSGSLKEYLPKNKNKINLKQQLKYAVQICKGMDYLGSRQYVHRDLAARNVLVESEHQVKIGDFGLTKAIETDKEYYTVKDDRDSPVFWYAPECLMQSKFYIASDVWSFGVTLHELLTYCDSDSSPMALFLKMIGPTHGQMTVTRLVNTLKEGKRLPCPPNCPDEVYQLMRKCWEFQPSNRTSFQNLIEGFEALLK

[15] = biological target: Serine/threonine-protein kinase RIO1 (Homo sapiens) (UniProt Q9BRS2); experiment: Inhibition of RIOK1 (unknown origin) at 1 uM relative to control
[16] = biological target: Mitogen-activated protein kinase kinase kinase 19 (Homo sapiens) (UniProt Q56UN5); experiment: Inhibition of YSK4 (unknown origin) at 1 uM relative to control
[17] = biological target: Tyrosine-protein kinase JAK3 (Homo sapiens) (UniProt P52333); experiment: Inhibition of JAK3 (unknown origin) at 1 uM relative to control
[18] = biological target: T3, Interleukin-1 receptor-associated kinase 4 (Mus musculus); experiment: Inhibition of IRAK4 in LPS-induced mouse RAW264.7 cells assessed as reduction in p38 level at 1 to 5 uM pretreated with LPS for 1 hr followed by compound administration and measured after 2 hrs by Western blotting analysis; format: cell-based; settings: dose 1-5 µM
RAW264.7 [19] = experiment: Activation of NF-kappaB pathway in LPS-induced mouse RAW264.7 cells expressing EGFP at 5 uM pretreated with compound for 1 hr followed by LPS-induction and measured at 15 min by flow cytometry analysis; format: cell-based; settings: filed as activator, time 75.0 min
[20] = biological target: Interleukin-1 receptor-associated kinase 1 (Homo sapiens) (UniProt P51617); experiment: Inhibition of IRAK1 (unknown origin) at 1 uM relative to control
[21] = biological target: T3, Interleukin-1 receptor-associated kinase 4 (Mus musculus); experiment: Inhibition of IRAK4 in LPS-induced mouse RAW264.7 cells assessed as reduction in ERK level at 1 to 5 uM pretreated with LPS for 1 hr followed by compound administration and measured after 2 hrs by Western blotting analysis; format: cell-based; settings: dose 1-5 µM
[22] = biological target: TRAF2 and NCK-interacting protein kinase (Homo sapiens) (UniProt Q9UKE5); experiment: Inhibition of TNIK (unknown origin) at 1 uM relative to control
[23] = biological target: Serine/threonine-protein kinase RIO3 (Homo sapiens) (UniProt O14730); experiment: Inhibition of RIOK3 (unknown origin) at 1 uM relative to control
RAW264.7 [24] = experiment: Activation of NF-kappaB pathway in LPS-induced mouse RAW264.7 cells at 5 uM pretreated with compound for 1 hr followed by LPS-induction and measured after 6 hrs by flow cytometry analysis; format: cell-based; settings: filed as activator, time 7.0 hrs

SMILES: COc1cc(N2CCN(CC(=O)NCCCCCCCCNc3cccc4c3C(=O)N(C3CCC(=O)NC3=O)C4=O)CC2)ccc1NC(=O)c1cccc(-c2ccn[nH]2)n1 (stereo not given)
inhibition [3]: inactive

SMILES: CC(C)Nc1cc(-n2ccc3cc(C#N)cnc32)ncc1C(=O)NC1CCC(C(=O)NCCOCCNC(=O)COc2cccc3c2C(=O)N(C2CCC(=O)NC2=O)C3=O)CC1 (stereo not given)
DC50 [4]: 405 nM

SMILES: COc1cc(N2CCN(CC(=O)NCCOCCOCCOCCOCCNc3cccc4c3C(=O)N(C3CCC(=O)NC3=O)C4=O)CC2)ccc1NC(=O)c1cccc(-c2ccn[nH]2)n1 (stereo not given)
inhibition [3]: inactive

SMILES: COc1cc(N2CCN(CC(=O)NCCOCCOCCNc3cccc4c3C(=O)N(C3CCC(=O)NC3=O)C4=O)CC2)ccc1NC(=O)c1cccc(-c2ccn[nH]2)n1 (stereo not given)
Drug metabolism [5]: Metabolite_Detected

SMILES: COc1cc(N2CCOCC2)ccc1NC(=O)c1cccc(-c2ccn[nH]2)n1
inhibition [6]: Active | inhibition [7]: inactive | inhibition [8]: Active | Activity [1]: 100% | Activity (Mus musculus): Active | inhibition [9]: inactive | inhibition [10]: inactive | inhibition [11]: Active | inhibition [12]: Active | Activity (RAW264.7 [13]): Active | inhibition [14]: inactive | inhibition [15]: inactive | inhibition [16]: inactive | inhibition [17]: inactive | inhibition [18]: Active | Activity (RAW264.7 [19]): Active | inhibition [20]: > 95% | inhibition [21]: Active | inhibition [22]: inactive | inhibition [23]: > 95% | Activity (RAW264.7 [24]): Active

The next lines start with the values.

Activity [1]: 55% | IC50 [2]: < 100 nM
SMILES: COc1cc(N2CCN(C(=O)CCCCCNc3cccc4c3C(=O)N(C3CCC(=O)NC3=O)C4=O)CC2)ccc1NC(=O)c1cccc(-c2ccn[nH]2)n1 (stereo not given)

Activity [1]: 32% | IC50 [2]: < 100 nM
SMILES: COc1cc(N2CCN(C(=O)CCCCCCCCCCCNc3cccc4c3C(=O)N(C3CCC(=O)NC3=O)C4=O)CC2)ccc1NC(=O)c1cccc(-c2ccn[nH]2)n1 (stereo not given)

inhibition [3]: inactive
SMILES: COc1cc(N2CCN(CC(=O)NCCOCCOCCNC(=O)C3CCN(c4ccc5c(c4)C(=O)N(C4CCC(=O)NC4=O)C5=O)CC3)CC2)ccc1NC(=O)c1cccc(-c2ccn[nH]2)n1 (stereo not given)

inhibition [3]: inactive
SMILES: COc1cc(N2CCN(C(=O)C3CCN(c4ccc5c(c4)C(=O)N(C4CCC(=O)NC4=O)C5=O)CC3)CC2)ccc1NC(=O)c1cccc(-c2ccn[nH]2)n1 (stereo not given)

Activity [1]: 26% | IC50 [2]: < 100 nM
SMILES: COc1cc(N2CCN(C(=O)C3CN(c4ccc5c(c4)C(=O)N(C4CCC(=O)NC4=O)C5=O)C3)CC2)ccc1NC(=O)c1cccc(-c2ccn[nH]2)n1 (stereo not given)

Activity [1]: 63% | IC50 [2]: < 100 nM
SMILES: COc1cc(N2CCN(CC(=O)NCCNc3cccc4c3C(=O)N(C3CCC(=O)NC3=O)C4=O)CC2)ccc1NC(=O)c1cccc(-c2ccn[nH]2)n1 (stereo not given)
